Assay results published in patent US10144715B2, “Piperazine derivatives as liver X receptor modulators” (priority 2014, dated 2018).
Where two headings read alike, the source gives them in different places.

Tests used:
LXR β LBD protein [1] = target: T1, LXR β LBD protein (Homo sapiens (Human), UniProt P55055); experiment: biochemical; type: biochemical; conditions: for EC50: read-out: FRET LXRβ EC50
Protocol: (§1) Two μL of the DMSO solutions were transferred to the plate and 38 μL of 10 nM LXRα-LBD or LXRβ-LBD (2×) were added immediately to the wells. The plate was shaken for 5 min at rt on an orbital micro shaker (DPC MicroMix® 5), after which 40 μL of 200 nM fluorescein-SRC2-3 peptide and 20 nM Terbium-anti-GST-antibody (Cat# PV3550, Life Technologies, Grand Island, N.Y.) solution (4×) were added to all. The plate was sealed and shaken for 2 min at rt, and incubated at rt for 2 h without agitation. […] The delay and window times were set at 100 and 200 microseconds, respectively. […] The percent control vs. compound concentration data were fit into a four-parameter model, and EC50 values were calculated from the fit as the concentrations corresponding to the inflection points on the concentration-response curves.
Target sequence in this assay (P55055 222-460): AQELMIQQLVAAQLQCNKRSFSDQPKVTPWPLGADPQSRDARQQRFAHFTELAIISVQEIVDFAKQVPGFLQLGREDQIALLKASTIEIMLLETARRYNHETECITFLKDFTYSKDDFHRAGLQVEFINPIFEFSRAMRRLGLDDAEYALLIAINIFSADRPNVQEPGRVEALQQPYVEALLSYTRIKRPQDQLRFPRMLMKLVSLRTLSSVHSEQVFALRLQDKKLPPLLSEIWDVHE

[2] = target: Gal4 DNA binding domain fused to the LBD of LXRβ in HEK293 cells (Homo sapiens (Human), UniProt P55055); experiment: cell-based
LXR β LBD protein [3] = target: T1, LXR β LBD protein; experiment: biochemical; type: binding; conditions: read-out: LXRβ Binding Ki
Target sequence in this assay (P55055 222-460 limits assumed): as the sequence (P55055 222-460) above

LXR α LBD protein [4] = target: T2, LXR α LBD protein (Homo sapiens (Human), UniProt Q13133); experiment: Human LXRα coactivator recruitment FRET assay, agonist mode; type: biochemical; conditions: agonist mode
Protocol: as §1

[5] = target: Gal4 DNA binding domain fused to the LBD of LXRα in HEK293 cells (Homo sapiens (Human), UniProt Q13133); experiment: LXR luciferase transcriptional reporter gene assay, agonist mode, LXRα; type: cell-based; conditions: for EC50: read-out: Cell LXRα EC50
LXR α LBD protein [6] = target: T2, LXR α LBD protein; experiment: LXR α radioligand binding assay (SPA, competition with [3H]TO901317); conditions: read-out: LXRα Binding Ki
[7] = agonist mode, read-out: Cell LXRβ EC50

T2 sequence (Q13133 209-447): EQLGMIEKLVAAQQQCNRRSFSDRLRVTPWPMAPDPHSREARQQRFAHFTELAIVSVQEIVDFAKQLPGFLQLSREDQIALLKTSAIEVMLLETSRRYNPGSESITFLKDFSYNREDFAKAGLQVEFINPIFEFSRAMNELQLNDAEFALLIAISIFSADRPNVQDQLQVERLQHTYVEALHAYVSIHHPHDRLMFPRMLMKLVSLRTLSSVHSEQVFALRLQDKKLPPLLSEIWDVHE
Sequence of Gal4 DNA binding domain fused to the LBD of LXRα in HEK293 cells (Q13133 209-447): as above
Sequence of Gal4 DNA binding domain fused to the LBD of LXRβ in HEK293 cells (P55055 222-460 limits assumed): as the sequence (P55055 222-460) above

EC50 (LXR β LBD protein [1]; agonist mode)	SMILES	FRET LXRβ efficacy (LXR β LBD protein [1]; agonist mode)	EC50 [2]	Cell LXRβ efficacy ([2]; agonist mode)	Ki (LXR β LBD protein [3])	EC50 (LXR β LBD protein [1])	EC50 (LXR α LBD protein [4])	EC50 ([5]; agonist mode)	EC50 [2, 7]	FRET LXRα efficacy (LXR α LBD protein [4])	Cell LXRα efficacy [5]	EC50 [5]	FRET LXRβ efficacy (LXR β LBD protein [1])	Ki (LXR α LBD protein [6])	Cell LXRβ efficacy [2]
1860 nM	CS(=O)(=O)c1cccc(N2CCN(Cc3ccc(C(F)(F)F)cn3)[C@@H](c3ccccc3)C2)c1 [46-64, (S)-4-(3-(methylsulfonyl)phenyl)-2-phenyl-1-((5-(trifluoromethyl)pyridin-2-yl)methyl)piperazine]	34%	5800 nM	5804 (13) %	> 2500 nM										
7100 nM	CS(=O)(=O)c1cccc(N2CCN(Cc3ccc(C(F)(F)F)cn3)[C@H](c3ccccc3)C2)c1 [46-63, (R)-4-(3-(methylsulfonyl)phenyl)-2-phenyl-1-((5-(trifluoromethyl)pyridin-2-yl)methyl)piperazine]	50%	> 20000 nM												
	CS(=O)(=O)c1cccc(N2CCN(Cc3ccc(C(F)(F)F)c(F)c3)[C@H](c3ccccc3)C2)c1 (single isomer, unassigned) [46-25]	17972 (116) %	2560 nM	2557 (13) %		18000 nM	> 50000 nM	> 20000 nM							
	CS(=O)(=O)c1cccc(N2CCN(Cc3ccc(C(F)(F)F)nc3)[C@H](c3ccccc3Cl)C2)c1 (single isomer, unassigned) [46-56]		> 20000 nM			2250 nM	27000 nM			47%		> 20000 nM	2252 (40) %		
	CC(C)[C@@H]1CN(c2ccc(F)c(S(C)(=O)=O)c2)CCN1c1nc2ccc(C#N)cc2s1 [7-53, (R)-2-(4-(4-fluoro-3-(methylsulfonyl)phenyl)-2-isopropylpiperazin-1-yl)benzo[d]thiazole-6-carbonitrile]		350 nM	350 (26) %	27 nM		> 50000 nM	795 nM			795 (40) %			553 nM	
	CC(C)[C@@H]1CN(c2cccc(S(C)(=O)=O)c2)CCN1c1ncc(C2CC2)cn1 [Cpd No 7-5, (R)-5-cyclopropyl-2-(2-isopropyl-4-(3-(methylsulfonyl)phenyl)piperazin-1-yl)pyrimidine]		93 nM		26 nM		313 nM			60%	501 (64) %	501 nM		346 nM	93 (32) %
	C[C@@]1(c2ccccc2)CN(c2cccc(S(C)(=O)=O)c2)CCN1Cc1ccc(C(F)(F)F)cc1 [46-20, (R)-2-methyl-4-(3-(methylsulfonyl)phenyl)-2-phenyl-1-(4-(trifluoromethyl)benzyl)piperazine]		> 20000 nM			> 50000 nM	> 50000 nM	> 20000 nM							
	COC(=O)c1cnc(N2CCN(c3ccc(F)c(S(C)(=O)=O)c3)C[C@H]2C(C)C)nc1C(F)(F)F [9-2, methyl (R)-2-(4-(4-fluoro-3-(methylsulfonyl)phenyl)-2-isopropylpiperazin-1-yl)-4-(trifluoromethyl)pyrimidine-5-carboxylate]		86 nM		10 nM	9 nM		543 nM			543 (54) %		9 (91) %	95 nM	86 (34) %
	CS(=O)(=O)c1cccc(N2CCN(CC3CCC(F)(F)CC3)[C@@H](c3ccccc3)C2)c1 [48-13, (S)-1-((4,4-difluorocyclohexyl)methyl)-4-(3-(methylsulfonyl)phenyl)-2-phenylpiperazine]						632 nM	2620 nM		23%	2624 (20) %			867 nM	
	CS(=O)(=O)c1cccc(N2CCN(C[C@H]3CC[C@@H](C(F)(F)F)CC3)[C@H](c3ccccc3)C2)c1 (single isomer, unassigned) [48-30]			28%			12900 nM		1630 nM	55%	4509 (17) %	4510 nM		2540 nM	
	CC(C)[C@@H]1CN(c2ccc(F)c(S(C)(=O)=O)c2)CCN1c1nccc(C2CC2)n1 [7-10, (R)-4-cyclopropyl-2-(4-(4-fluoro-3-(methylsulfonyl)phenyl)-2-isopropylpiperazin-1-yl)pyrimidine]		95 nM		13 nM		292 nM			55%	586 (42) %	586 nM		236 nM	95 (23) %
	CC1(C)CCC(CN2CCN(c3cccc(S(C)(=O)=O)c3)C[C@H]2c2ccccc2)CC1 [Cpd No 48-3, (R)-1-((4,4-dimethylcyclohexyl)methyl)-4-(3-(methylsulfonyl)phenyl)-2-phenylpiperazine]						5190 nM			31%	4273 (20) %	4270 nM		2340 nM	
	CC(C)[C@@H]1CN(c2cccc(S(N)(=O)=O)c2)CCN1c1nccc(C(F)(F)F)n1 [7-60, (R)-3-(3-isopropyl-4-(4-(trifluoromethyl)pyrimidin-2-yl)piperazin-1-yl)benzenesulfonamide]		59 nM	59 (75) %	146 nM		84 nM	248 nM		97%	248 (95) %			873 nM	
5770 nM	CS(=O)(=O)c1cccc(N2CCN(Cc3ccc(C(F)(F)F)o3)[C@H](c3ccccc3)C2)c1 [46-65, (R)-4-(3-(methylsulfonyl)phenyl)-2-phenyl-1-((5-(trifluoromethyl)furan-2-yl)methyl)piperazine]	25%	> 20000 nM												
> 50000 nM	CS(=O)(=O)c1cccc(N2CCN(Cc3ccc(C(F)(F)F)o3)[C@@H](c3ccccc3)C2)c1 [46-66, (S)-4-(3-(methylsulfonyl)phenyl)-2-phenyl-1-((5-(trifluoromethyl)furan-2-yl)methyl)piperazine]		> 20000 nM		207 nM										
	CC(C)(C)C1CN(c2ccc(F)c(S(C)(=O)=O)c2)CCN1c1nccc(C(F)(F)F)n1 (stereo not shown) [7-29, 2-(2-(tert-butyl)-4-(4-fluoro-3-(methylsulfonyl)phenyl)piperazin-1-yl)-4-(trifluoromethyl)pyrimidine]						161 nM	150 nM		101%	150 (92) %				

SMILES	EC50 (LXR β LBD protein [1]; agonist mode)	FRET LXRβ efficacy (LXR β LBD protein [1]; agonist mode)	EC50 [2]	Cell LXRβ efficacy ([2]; agonist mode)	Ki (LXR β LBD protein [3])	EC50 (LXR β LBD protein [1])	EC50 (LXR α LBD protein [4])	EC50 ([5]; agonist mode)	EC50 [2, 7]	FRET LXRα efficacy (LXR α LBD protein [4])	Cell LXRα efficacy [5]	EC50 [5]	FRET LXRβ efficacy (LXR β LBD protein [1])	Ki (LXR α LBD protein [6])	Cell LXRβ efficacy [2]
CS(=O)(=O)c1cccc(N2CCN(C[C@H]3CC[C@H](C(F)(F)F)CC3)[C@H](c3ccccc3)C2)c1 (single isomer, unassigned) [48-32]	3800 nM	97%		15%			15300 nM		3340 nM	59%	19000 (4) %	19000 nM			
NS(=O)(=O)c1cccc(N2CCN(C[C@H]3CC[C@@H](C(F)(F)F)CC3)[C@H](c3ccccc3)C2)c1 (single isomer, unassigned) [48-34]	704 nM	39%		32%			2310 nM		3820 nM	25%	9858 (48) %	9860 nM			
CS(=O)(=O)c1cc(N2CCN(C[C@H]3CC[C@H](C(F)(F)F)CC3)[C@H](c3ccccc3)C2)ccc1C(N)=O (single isomer, unassigned) [17-36]	1180 nM	79%					808 nM		> 20000 nM	46%		> 20000 nM			
